The record followed here is paper PMC8659069, “Optimization of 4-Anilinoquinolines as Dengue Virus Inhibitors” (Molecules, 2021).

Like-named read-outs stand apart in the source and are kept apart here.

One data set in a line: in vitro. The note with it: human.
Another data set has as its system DENV2. Kind of data set: microbe, parasite or virus in culture. The format is cell-based, dengue virus (DENV2, New Guinea C strain). The note with it: read-out: DENV Inhibition EC50.
[1] abbreviates: Dengue virus, DENV2, Huh-7, 48 h.

The compound `COc1cccc(Nc2ccnc3ccc(OC)cc23)c1` [Compound 15] returned a CC50 in the data set “in vitro” of over 10 µM. In the data set on DENV2 (setting [1]), the EC50 (as a rule, the midpoint of the concentration-response curve) is 4.4 µM.
In the data set “in vitro”, `O=c1[nH]c2ccc(Nc3ccnc4ccc(Br)cc34)cc2[nH]1` [Compound 53] registered a CC50 at 48 h of over 10 µM. The EC50 in the data set on DENV2 (setting [1]) was over 10 µM.
`CS(=O)(=O)c1ccc2nccc(Nc3cccc(O)c3)c2c1` [Compound 18] had a CC50 in “in vitro” of over 10 µM. The EC50 with DENV2 (setting [1]) is over 10 µM.
In “in vitro”, `COc1cccc(Nc2ccnc3ccc(Br)cc23)c1OC` [Compound 33] returned a CC50 at 48 h of over 10 µM. Besides, the concentration giving a half-maximal response (EC50) in the data set on DENV2 (setting [1]) came out at 7.8 µM.
As to `Brc1ccc2nccc(Nc3ccc4c(c3)OCO4)c2c1` [Compound 28], in the data set “in vitro”, the CC50 was determined as 8.6 µM. In the data set with DENV2 (setting [1]), the EC50 is 1.7 µM.
With `Cn1ncc2c(Nc3ccnc4ccc(Br)cc34)cccc21` [Compound 47], the CC50 at 48 h in “in vitro” is over 10 µM. In addition, the concentration giving a half-maximal response (EC50) was about 5 µM in the data set on DENV2 (setting [1]) and 5.4 µM in the data set with DENV2.
`O=S1(=O)Cc2ccc(Nc3ccnc4ccc(Br)cc34)cc2C1` [Compound 56] had a CC50 at 48 h in “in vitro” of over 10 µM. For the same compound, the EC50 in the data set with DENV2 (setting [1]) is 6.3 µM.
On to `FS(F)(F)(F)(F)c1cccc(Nc2ccnc3ccc(Br)cc23)c1` [Compound 25], for which the CC50 in “in vitro” is over 10 µM. The EC50 in the data set with DENV2 (setting [1]) worked out at 1.5 µM.
As for `Nc1cccc(Nc2ccnc3ccc(C(F)(F)F)cc23)c1` [Compound 7], the CC50 in the data set “in vitro” was over 10 µM. Also, in the data set with DENV2 (setting [1]), the EC50 was 5.9 µM.
Consider `OCc1cccc(Nc2ccnc3ccc(Br)cc23)c1` [Compound 23], for which the CC50 in “in vitro” was over 10 µM. In addition, in the data set with DENV2 (setting [1]), the EC50 is 3.7 µM.
In “in vitro”, `COc1cccc(Nc2ccnc3ccc(S(C)(=O)=O)cc23)c1` [Compound 17] yielded a CC50 of over 10 µM. Further, the EC50 with DENV2 (setting [1]) is over 10 µM.
In turn, `Brc1ccc2nccc(Nc3cccc4cnoc34)c2c1` [Compound 39] returned a CC50 at 48 h in the data set “in vitro” of over 10 µM. Moreover, the EC50 in the data set on DENV2 (setting [1]) is over 10 µM.
In the data set “in vitro”, `Nc1cccc(Nc2ccnc3ccc(Br)cc23)c1` [Compound 20] yielded a CC50 of over 10 µM. Also, the EC50 in the data set with DENV2 (setting [1]) is over 10 µM.
With `Brc1ccc2nccc(Nc3cccc4c3OCO4)c2c1` [Compound 30], the CC50 in “in vitro” was over 10 µM. In addition, the concentration giving a half-maximal response (EC50) in the data set on DENV2 (setting [1]) was over 10 µM.
The compound `COc1cccc(Nc2ccnc3ccccc23)c1` [Compound 13] returned a CC50 in “in vitro” of over 10 µM. Further, the EC50 with DENV2 (setting [1]) amounted to 2.5 µM.
`CNc1cccc(Nc2ccnc3ccc(C(F)(F)F)cc23)c1` [Compound 8] registered a CC50 in the data set “in vitro” of over 10 µM. Moreover, the EC50 with DENV2 (setting [1]) is 8.9 µM.
With `CN(C)c1cccc(Nc2ccnc3ccc(Br)cc23)c1` [Compound 22], the CC50 in the data set “in vitro” was over 10 µM. Further, the EC50 with DENV2 (setting [1]) is over 10 µM.
As for `Brc1ccc2nccc(Nc3ccc4c(c3)COC4)c2c1` [Compound 29], in “in vitro”, the CC50 is over 10 µM. The EC50 in the data set on DENV2 (setting [1]) was over 10 µM.
As for `Brc1ccc2nccc(Nc3cccc4scnc34)c2c1` [Compound 42], the CC50 in the data set “in vitro” was over 10 µM. Besides, in the data set with DENV2 (setting [1]), the EC50 was over 10 µM.
With `O=[N+]([O-])c1cccc(Nc2ccnc3ccc(Br)cc23)c1` [Compound 19], in “in vitro”, the CC50 is over 10 µM. For the same compound, in the data set with DENV2 (setting [1]), the concentration giving a half-maximal response (EC50) was over 10 µM.
In turn, `Cn1c(=O)[nH]c2cc(Nc3ccnc4ccc(Br)cc34)ccc21` [Compound 55] gave a CC50 at 48 h in “in vitro” of over 10 µM. In the data set on DENV2 (setting [1]), the EC50 was 7.1 µM.
As to `O=[N+]([O-])c1cccc(Nc2ccnc3ccc(C(F)(F)F)cc23)c1` [Compound 6], the CC50 in “in vitro” is over 10 µM. Moreover, the EC50 with DENV2 (setting [1]) was over 10 µM.
In the data set “in vitro”, `Fc1ccc2c(c1Nc1ccnc3ccc(Br)cc13)OCO2` [Compound 32] registered a CC50 at 48 h of over 10 µM. In the data set on DENV2 (setting [1]), the concentration for a half-maximal effect (EC50) was 1.9 µM.
Regarding `COc1ccc2nccc(Nc3cccc(O)c3)c2c1` [Compound 16], in “in vitro”, the CC50 was over 10 µM. Besides, the EC50 in the data set on DENV2 (setting [1]) was over 10 µM.
Turning to `Brc1ccc2nccc(Nc3cccc4c3OCC4)c2c1` [Compound 36], the CC50 at 48 h in “in vitro” was over 10 µM. For the same compound, in the data set on DENV2 (setting [1]), the half-maximal effective concentration (EC50) is 5.7 µM.
In turn, `CN(C)c1cccc(Nc2ccnc3ccc(C(F)(F)F)cc23)c1` [Compound 9] came in with a CC50 in the data set “in vitro” of over 10 µM. Also, the EC50 in the data set with DENV2 (setting [1]) came out at 2.3 µM.
Regarding `OCc1cccc(Nc2ccnc3ccc(C(F)(F)F)cc23)c1` [Compound 10], the CC50 in the data set “in vitro” is over 10 µM. In addition, the EC50 with DENV2 (setting [1]) is 6.6 µM.
In the case of `COc1cccc(Nc2ccnc3ccc(Br)cc23)c1` [Compound 11], in “in vitro”, the CC50 is over 10 µM. The EC50 with DENV2 (setting [1]) worked out at 0.84 µM.
For the compound `Brc1ccc2nccc(Nc3ccc4[nH]ncc4c3)c2c1` [Compound 51], the CC50 at 48 h in the data set “in vitro” is over 10 µM. Besides, the EC50 in the data set on DENV2 (setting [1]) worked out at 1.2 µM.
In the data set “in vitro”, `CC(C)(C)Oc1cccc(Nc2ccnc3ccc(Br)cc23)c1` [Compound 26] returned a CC50 of 9.2 µM. Also, the 50% effective concentration (EC50) with DENV2 (setting [1]) stood at 2.3 µM.
Consider `Cn1nnc2c(Nc3ccnc4ccc(Br)cc34)cccc21` [Compound 46], for which, in the data set “in vitro”, the CC50 at 48 h is over 10 µM. In addition, the EC50 in the data set with DENV2 (setting [1]) was about 5 µM; with DENV2 it was 5.5 µM.
Consider `Brc1ccc2nccc(Nc3cccc4c3CCO4)c2c1` [Compound 35], for which, in the data set “in vitro”, the CC50 is over 10 µM. Also, in the data set on DENV2 (setting [1]), the 50% effective concentration (EC50) is 0.95 µM.
The corresponding values for `Oc1cccc(Nc2ccnc3ccc(C(F)(F)F)cc23)c1` [Compound 5] are over 10 µM and 2.7 µM.
On to `Brc1ccc2nccc(Nc3cccc4c3COC4)c2c1` [Compound 31], for which the CC50 in “in vitro” was over 10 µM. Besides, the EC50 in the data set with DENV2 (setting [1]) is over 10 µM.
Consider `Brc1ccc2nccc(Nc3cccc4nonc34)c2c1` [Compound 44], for which the CC50 at 48 h in the data set “in vitro” is over 10 µM. Further, the EC50 in the data set with DENV2 (setting [1]) came to 9.2 µM.
Compound `Brc1ccc2nccc(Nc3cccc4ncoc34)c2c1` [Compound 41] showed a CC50 in “in vitro” of over 10 µM. In the data set on DENV2 (setting [1]), the EC50 is 3.2 µM.
For the compound `FC1(F)Oc2cccc(Nc3ccnc4ccc(Br)cc34)c2O1` [Compound 34], the CC50 in “in vitro” is over 10 µM. Also, the EC50 in the data set on DENV2 (setting [1]) was determined as 7.1 µM.
On the same counts, the results for `Brc1ccc2nccc(Nc3cccc4sccc34)c2c1` [Compound 43] are over 10 µM and 2.9 µM.
`Brc1ccc2nccc(Nc3ccc4cn[nH]c4c3)c2c1` [Compound 49] came in with a CC50 in “in vitro” of over 10 µM. Further, the EC50 in the data set on DENV2 (setting [1]) is 1.8 µM.
Compound `Brc1ccc2nccc(Nc3cccc4[nH]ncc34)c2c1` [Compound 48] had a CC50 at 48 h in the data set “in vitro” of over 10 µM. Further, the EC50 in the data set on DENV2 (setting [1]) was 2.1 µM.
Take `O=c1[nH]c2cc(Nc3ccnc4ccc(Br)cc34)ccc2o1` [Compound 54]: the CC50 in the data set “in vitro” was over 10 µM. For the same compound, the EC50 with DENV2 (setting [1]) is over 10 µM.
For `Oc1cccc(Nc2ccnc3ccccc23)c1` [Compound 14], the CC50 in the data set “in vitro” is over 10 µM. Moreover, the EC50 in the data set with DENV2 (setting [1]) is over 10 µM.
Compound `CC(C)(C)c1cccc(Nc2ccnc3ccc(Br)cc23)c1` [Compound 27] gave a CC50 in “in vitro” of 6 µM. The EC50 in the data set with DENV2 (setting [1]) was 0.94 µM.
On to `Brc1ccc2nccc(Nc3cccc4nsnc34)c2c1` [Compound 45], for which the CC50 at 48 h in “in vitro” was over 10 µM. Moreover, the EC50 with DENV2 (setting [1]) amounted to 5.8 µM.
For the compound `OCc1ccccc1Nc1ccnc2ccc(Br)cc12` [Compound 24], the CC50 in the data set “in vitro” was over 10 µM. The EC50 in the data set with DENV2 (setting [1]) amounted to 7.1 µM.
`Brc1ccc2nccc(Nc3cccc4oncc34)c2c1` [Compound 40]: the CC50 at 48 h in the data set “in vitro” is over 10 µM. Further, the EC50 in the data set on DENV2 (setting [1]) was over 10 µM.
